Results as given in US9073912B2, “Azetidine derivatives as antiparasitic agents” (Zoetis LLC, priority 2012, dated 2015).

Tested on: Ctenocephalides felis
Test: Flea (Ctenocephalides felis) Membrane Feed Assay-Adult
Conditions: for minimum effective concentration (MEC): assessed at 24 hours, 10-flea sample; for lethal dose 80% (LD80): adult fleas fed approx. 2 hours on treated citrated bovine blood, knockdown and/or death observed at approx. 2 and 24 hours
Description: Flea (Ctenocephalides felis) Membrane Feed Assay-Adult
Formula (1) compounds were dissolved in DMSO and aliquots added to citrated bovine blood in a membrane covered Petri dish pre-warmed to 37° C. Feeding tubes containing approximately 30-35 adult fleas were placed onto the Petri dishes. The fleas fed for approximately 2 hours. […] Endpoint data is recorded as a lethal dose 80% (LD^80) in μg/mL. […] Further, the results can be assessed at 24 hours based on minimum effective concentration (MEC) in μM with a 10-flea sample.

For CS(=O)(=O)CC(=O)N1CC(F)(c2ccc(C3=NCC(c4cc(Cl)cc(Cl)c4)(C(F)(F)F)C3)cc2)C1 (centres unmarked) [Example 1, 1-(3-{4-[4-(3,5-dichloro-phenyl)-4-trifluoromethyl-4,5-dihydro-3H-pyrrol-2-yl]-phenyl}-3-fluoro-azetidin-1-yl)-2-methanesulfonyl-ethanone], the “minimum effective concentration (MEC)” value was 3 µM.
In the case of CC(C)C(=O)N1CC(F)(c2ccc(C3=NCC(c4cc(Cl)cc(Cl)c4)(C(F)(F)F)C3)cc2)C1 (centres unmarked) [Example 2, 1-(3-{4-[4-(3,5-dichloro-phenyl)-4-trifluoromethyl-4,5-dihydro-3H-pyrrol-2-yl]-phenyl}-3-fluoro-azetidin-1-yl)-2-methyl-propan-1-one], the “lethal dose 80% (LD80)” value is reported as 0.3 µg/mL and the “minimum effective concentration (MEC)” value is reported as 1 µM.
In the case of CS(=O)(=O)CC(=O)N1CC(F)(c2ccc(C3=NCC(c4cc(Cl)c(F)c(Cl)c4)(C(F)(F)F)C3)cc2)C1 (centres unmarked) [Example 3, 3-(3,5-dichloro-4-fluorophenyl)-5-(4-{3-fluoro-1-[(methylsulfonyl)-acetyl]azetidin-3-yl}phenyl)-3-(trifluoromethyl)-3,4-dihydro-2H-pyrrole], the “lethal dose 80% (LD80)” value is reported as 3 µg/mL and the “minimum effective concentration (MEC)” value is reported as 1 µM.
With CC(C)C(=O)N1CC(F)(c2ccc(C3=NCC(c4cc(Cl)c(F)c(Cl)c4)(C(F)(F)F)C3)cc2)C1 (centres unmarked) [Example 4, 3-(3,5-dichloro-4-fluorophenyl)-5-[4-(3-fluoro-1-isobutyrylazetidin-3-yl)phenyl]-3-(trifluoromethyl)-3,4-dihydro-2H-pyrrole] the “minimum effective concentration (MEC)” value was 1 µM.
CS(=O)(=O)CC(=O)N1CC(F)(c2ccc(C3=NCC(c4cc(Cl)c(Cl)c(Cl)c4)(C(F)(F)F)C3)cc2)C1 (centres unmarked) [Example 5, 1-(3-fluoro-3-{4-[4-(3,4,5-trichloro-phenyl)-4-trifluoromethyl-4,5-dihydro-3H-pyrrol-2-yl]-phenyl}-azetidin-1-yl)-2-methanesulfonyl-ethanone] was tested, and the “lethal dose 80% (LD80)” value was 1 µg/mL and the “minimum effective concentration (MEC)” value was 1 µM.
CC(C)C(=O)N1CC(F)(c2ccc(C3=NCC(c4cc(Cl)c(Cl)c(Cl)c4)(C(F)(F)F)C3)cc2)C1 (centres unmarked) [Example 6, 5-[4-(3-fluoro-1-isobutyrylazetidin-3-yl)phenyl]-3-(3,4,5-trichloro-phenyl)-3-(trifluoromethyl)-3,4-dihydro-2H-pyrrole] was tested, and the “lethal dose 80% (LD80)” value was 3 µg/mL.
In the case of CC(C)C(=O)N1CC(F)(c2ccc(C3=NOC(c4cc(Cl)c(F)c(Cl)c4)(C(F)(F)F)O3)cc2)C1 (centres unmarked) [Example 8, 1-(3-{4-[5(3,5-dichloro-4-fluoro-phenyl)-5-trifluoromethyl-[1,4,2]dioxazol-3-yl]-phenyl}-3-fluoro-azetidin-1-yl)-2-methyl-propan-1-one], the “minimum effective concentration (MEC)” value is reported as 30 µM.
CS(=O)(=O)CC(=O)N1CC(F)(c2ccc(C3=NNC(c4cc(Cl)c(F)c(Cl)c4)(C(F)(F)F)C3)cc2)C1 (centres unmarked) [Example 18, 1-(3-(4-(5-(3,5-dichloro-4-fluorophenyl)-5-(trifluoromethyl)-4,5-dihydro-1H-pyrazol-3-yl)phenyl)-3-fluoroazetidin-1-yl)-2-(methylsulfonyl)ethanone] was tested, and the “minimum effective concentration (MEC)” value was 30 µM.
